Measured values published in patent publication US20250375457A1, “TOPICAL PHARMACEUTICAL COMPOSITIONS AND USES THEREOF” (Shenzhen Pharmacin Co., Ltd., priority 2022, published 2025).
Read-outs that look alike come from different tables or passages of the source.

Key:
[1] = cited from earlier work
British guinea pigs = assay type: in vivo; details: single skin application 0.2 mL/site, irradiation 10±1 J/cm^2, observed to 72 hours
Experimental: Phototoxicity of midostaurin cream was tested using British guinea pigs as a model. Male guinea pigs were randomly divided into groups and given a single skin application of physiological saline (negative control), 8-MOP (positive control), 1.0% midostaurin cream, and midostaurin cream blank matrix. The dose given is 0.2 mL/site and the administration site was fixed after the treatment was applied. After 0.5 hours, the administration site was irradiated by the sunlight simulator of Dr. Hönle AG (SOL500) to reach the specified irradiation amount of 10±1 J/cm^2. The irradiance was measured with a UV radiometer equipped with type UVA FO from Dr. Hönle AG. The first day of dosing is designated as day 1 of the trial (Day 1). After the irradiation, the skin irritation of the administration site was observed and scored at 1+0.5 hours, 24 hours, 48 hours and 72 hours, respectively.

[2] = Excipient compatibility study (impurities by HPLC); assay type: physicochemical; details: 1:200 (w/w), 60° C. for 10 days
Experimental: Midostaurin was mixed with many excipients used in topical formulations at 1:200 (w/w) and was placed at 60° C. for 10 days before testing.

[3] = Solubility of midostaurin in solubilizer-water mixture systems; assay type: physicochemical; details: solubilizer-water mixtures, aqueous with cosolvent or surfactant or cyclodextrin, thermodynamic from solid, Transcutol, Labrasol, Tween 80, Cremphor EL, Kolliphor HS15 at 10%, 20%, 30% v/v in water, 25° C.
Experimental: The solubility of midostaurin in a system with water and a solubilizer combined at a certain ratio was also evaluated. The method involves adding excess amorphous midostaurin powders into various concentrations of solubilizer and water systems and mixed for 24 hours at 25° C. with 600 rpm to ensure equilibrium was achieved. Solubilizers selected for this study include Transcutol, Labrasol, Tween 80, Cremphor EL, and Kolliphor HS15. Each solubilizer is mixed with water at 10%, 20%, and 30% v/v, respectively, to form a system where amorphous midostaurin power was dissolved.

[4] = Equilibrium solubility of midostaurin in different solvents (HPLC); assay type: physicochemical; details: thermodynamic from solid, 25° C., 24-72 hours
Experimental: Many different solvents were evaluated for their compatibility with midostaurin. […] Solubility was measured by HPLC.

Row | Impurity results (%) RRT 0.91 [2] [%] | Impurity results (%) RRT 0.93 [2] [%] | Impurity results (%) RRT 0.97 [2] [%] | Impurity results (%) RRT 1.00 (midostaurin assay content) [2] [%] | Impurity results (%) RRT 1.10 [2] [%] | solubility at 24 h [3] [µg/mL] | solubility ([4]; oil or lipid, corn oil, read-out: solubility in corn oil) [µg/mL] | solubility ([4]; oil or lipid, soybean oil, read-out: solubility in soybean oil) [µg/mL] | solubility ([4]; organic solvent or mixture, Labrasol, read-out: solubility in Labrasol) [µg/mL] | solubility ([4]; organic solvent or mixture, Tween 80, read-out: solubility in Tween 80) [µg/mL] | solubility ([4]; organic solvent or mixture, ethanol, read-out: solubility in ethanol) [µg/mL] | solubility ([4]; organic solvent or mixture, glycerol, read-out: solubility in glycerol) [µg/mL] | SMILES | log P [1] | phototoxicity (edema and erythema at administration site after UV irradiation) (British guinea pigs)
1 | – | – | – | – | – | – | – | – | – | – | – | – | Oc1ccc(O)cc1 [Hydroquinone, hydroquinone] | 1.09 | –
2 | – | – | – | – | – | – | – | – | – | – | – | – | COc1c2occc2cc2ccc(=O)oc12 [Lot 8-MOP] | – | Edema and erythema
3 | 0.07 | 0.11 | 0.12 | 99.64 | 0.06 | < 10000 | < 10000 | < 10000 | > 50000 | > 50000 | < 10000 | < 10000 | CO[C@@H]1[C@H](N(C)C(=O)c2ccccc2)C[C@H]2O[C@]1(C)n1c3ccccc3c3c4c(c5c6ccccc6n2c5c31)C(=O)NC4 [Midostaurin, midostaurin] | 5.27 | –
